Measurements reported in patent publication US9808469B2, “Antitumor activity of multi-kinase inhibitors in triple negative breast cancer” (ENTRECHEM, S.L, priority 2014, dated 2017).

Assays:
Assay type in all cases: cell-based
[1] = test system: MDA-MB-231 cells; assay: MTT metabolization, inhibition of MDA-MB-231 cell proliferation
Method: (§1) These triple negative breast cancer cell lines were obtained from the American Type Culture Collection Cell Biology Collection (ATCC) (Manassas, Va.). The medium was changed every 2 days.
(§2) Cell proliferation and growth experiments were carried out using 3-(4,5-dimethylthiazol-2-yl)-2,5-diphenyltetrazolium bromide (MTT) uptake assays, where MTT is reduced to purple formazan by the mitochondria of living cells. Increase in cell number is detected by augmented MTT metabolization, and decrease in cell number is reflected by a decrease. […] The cells were treated with the drug at different concentrations to plot the dose-response curves in all cancer cell lines using in the study. […] After treatment, each well was replaced with 250 μL of fresh medium containing MTT ([…]) and incubated for 1 hour. The medium was then removed and 500 μL of dimethyl sulfoxide was added to each well. The plate was agitated in the dark for 5 minutes to dissolve the MTT-formazan crystals. The absorbance of the samples was recorded at 562 nm in a multi-well plate reader (BMG labtech). Results were plotted as the mean values of quadruplicates from a representative experiment that was repeated at least two independent times.
(§3) Combination index values less than 1 indicate synergism, values equal to 1 indicate an additive effect, whereas values greater than 1 indicate antagonism. Combination index values from three independent experiments were generated.

[2] = test system: HS578T cells; assay: MTT metabolization, inhibition of HS578T cell proliferation
Method: as §1, §2, §3

[3] = test system: BT-549 cells; assay: MTT metabolization, inhibition of BT-549 cell proliferation
Method: as §1, §2, §3

For `N.N.O=C([O-])C1(C(=O)[O-])CCC1.[Pt+2]` [Carboplatin, carboplatin, reference compound], the “Percentage inhibition Carboplatin mean” value ([1]; Carboplatin 80 nM alone) was 74.70%, the “Percentage inhibition Carboplatin mean” value ([1]; Carboplatin 120 nM alone) was 62.30% and the “Percentage inhibition Carboplatin mean” value ([1]; Carboplatin 160 nM alone) was 61.11%. The “Percentage inhibition Carboplatin mean” value ([1]; Carboplatin 200 nM alone) was 58.21%, the “Percentage inhibition Carboplatin mean” value ([2]; Carboplatin 80 nM alone) was 70.90% and the “Percentage inhibition Carboplatin mean” value ([2]; Carboplatin 120 nM alone) was 60.26%. The “Percentage inhibition Carboplatin mean” value ([2]; Carboplatin 160 nM alone) was 50.49%, the “Percentage inhibition Carboplatin mean” value ([2]; Carboplatin 200 nM alone) was 24.33% and the “Percentage inhibition Carboplatin mean” value ([3]; Carboplatin 80 nM alone) was 37.09%. The “Percentage inhibition Carboplatin mean” value ([3]; Carboplatin 120 nM alone) was 21.43%, the “Percentage inhibition Carboplatin mean” value ([3]; Carboplatin 160 nM alone) was 19.39% and the “Percentage inhibition Carboplatin mean” value ([3]; Carboplatin 200 nM alone) was 15.69%.
With `CC(=O)O[C@@]12CO[C@@H]1C[C@H](O)[C@@]1(C)C(=O)[C@H](O)C3=C(C)[C@@H](OC(=O)[C@H](O)[C@@H](NC(=O)OC(C)(C)C)c4ccccc4)C[C@@](O)([C@@H](OC(=O)c4ccccc4)[C@H]21)C3(C)C` [Docetaxel, docetaxel, reference compound] the viability at 0.0004 µM ([1]; Homo sapiens, MDA-MB-231, Docetaxel 0.4 nM alone, read-out: Percentage inhibition Docetaxel mean) was 59.3%, the viability at 0.0008 µM ([1]; Homo sapiens, MDA-MB-231, Docetaxel 0.8 nM alone, read-out: Percentage inhibition Docetaxel mean) was 33.8% and the viability at 0.0012 µM ([1]; Homo sapiens, MDA-MB-231, Docetaxel 1.2 nM alone, read-out: Percentage inhibition Docetaxel mean) was 25.3%. For the same molecule, the viability at 0.0016 µM ([1]; Homo sapiens, MDA-MB-231, Docetaxel 1.6 nM alone, read-out: Percentage inhibition Docetaxel mean) was 25.3%, the percent inhibition of cell proliferation at 0.0004 µM ([2]; Homo sapiens, Hs-578T, Docetaxel 0.4 nM alone, read-out: Percentage inhibition Docetaxel mean) was 73% and the percent inhibition of cell proliferation at 0.0008 µM ([2]; Homo sapiens, Hs-578T, Docetaxel 0.8 nM alone, read-out: Percentage inhibition Docetaxel mean) was 49.6%. For the same molecule, the percent inhibition of cell proliferation at 0.0012 µM ([2]; Homo sapiens, Hs-578T, Docetaxel 1.2 nM alone, read-out: Percentage inhibition Docetaxel mean) was 45.8%, the percent inhibition of cell proliferation at 0.0016 µM ([2]; Homo sapiens, Hs-578T, Docetaxel 1.6 nM alone, read-out: Percentage inhibition Docetaxel mean) was 47.9% and the inhibition at 0.0004 µM ([3]; Homo sapiens, BT-549, Docetaxel 0.4 nM alone, read-out: Percentage inhibition Docetaxel mean) was 82%. It also gave an inhibition at 0.0008 µM ([3]; Homo sapiens, BT-549, Docetaxel 0.8 nM alone, read-out: Percentage inhibition Docetaxel mean) of 36.1%, an inhibition at 0.0012 µM ([3]; Homo sapiens, BT-549, Docetaxel 1.2 nM alone, read-out: Percentage inhibition Docetaxel mean) of 36.5% and an inhibition at 0.0016 µM ([3]; Homo sapiens, BT-549, Docetaxel 1.6 nM alone, read-out: Percentage inhibition Docetaxel mean) of 36.1%.
